Data published in patent publication US20250250240A1, “PHENAZINE COMPOUND FOR MEASURING BACTERIAL EFFLUX” (priority 2022, published 2025).
Entries after “also recorded” stand apart in the source; their conditions may differ.

Experiments:
AcrAB efflux pump [1] = assay: Bacterial staining (pellet colour) test for AcrAB efflux pump activity; format: cell-based, Escherichia coli; conditions: 1 μg/mL, 15 min
Procedure: The experimental protocol is the same as that described in the previous examples, except for the bacterial strains used. Briefly, compounds 29 and 392 (1 μg/mL) were added to 5 mL of a cell suspension of different E. coli strains (OD=1.5), mixed by tilting and left to stand on the table at room temperature for 15 min. The cells were then centrifuged at 3500 rpm for 10 min and rinsed with potassium phosphate buffer (PBP). The cell pellet was washed only once.

NorA efflux pump [2] = assay: Bacterial staining (pellet colour) test for NorA efflux pump activity; format: cell-based, Staphylococcus aureus; conditions: 0.75 μg/mL, 15 min
Procedure: (§1) Bacterial strains: The inventors used the following strains of Staphylococcus aureus: • CIP 76.25, a reference strain producing a basal level of NorA, • SA1199, a reference strain producing a basal level of NorA, • SA 1199B, an overproducer of the NorA pump, and • SA K1758 with the NorA gene deleted, (Kaatz et al., 2003, Antimicrob Agents Chemother. 2003 February; 47(2): 719-26).
(§2) Bacterial staining: Bacteria in exponential growth phase are incubated for 15 min in the presence of compound 053. The bacteria are then washed twice in phosphate buffer and centrifuged, with the pellets observed with the naked eye.
The following protocol was followed: • 1. Grow bacteria on a freshly prepared Muller Hilton-II (MH-II) agar plate. Incubate the Petri dish overnight at 37° C. (Note: Incubation temperature and growth time depend on the bacteria used in the experiment). • 2. The next morning, pick one or two colonies from the overnight plate and inoculate them in an Erlenmeyer flask containing 20 mL MH-II broth. • 3. Incubate the Erlenmeyer on an orbital shaker at 37° C. and 160 rpm for 3-4 hrs. Note: This step allows us to obtain cells in exponential phase, so we need to consider the doubling time of the bacteria used. • 4. After incubation, transfer the cells to a centrifuge tube and centrifuge at 4500 rpm for 10 minutes. Discard supernatant. Add fresh MH-II broth to the centrifuge tube and adjust the optical density of the cells to 0.5. • 5. Transfer an aliquot (5 mL) of cells with adjusted optical density to a new centrifuge tube (50 mL). Add 3.75 μL of compound 053 stock solution (1000 μg/mL) to this tube. Cap the tubes and shake thoroughly to mix the compound. Then keep the centrifuge tube on the table for 15 minutes at room temperature. Note: It is preferable to have a larger surface area to facilitate agitation. The final concentration of 053 used in the experiment is 0.75 μg/mL. […] After 15 minutes contact time, centrifuge the tubes for 10-15 minutes at 4500 rpm to obtain cell pellets and discard supernatant. […]

NorA efflux pump [3] = assay: Fluorescence measurement (spectrofluorimetry, excitation 530 nm) of treated bacteria; format: cell-based, Staphylococcus aureus
Procedure: as §1
(§3) Fluorescence measurement: Bacteria in exponential growth phase are incubated for 15 min in the presence of compound 053. The optical density at 600 nm is then adjusted to 0.5 and 50 μL is transferred to a black microtiter plate. Fluorescence is read in a Tecan M200 microplate reader.

NorA efflux pump [4] = assay: Fluorescence reading by flow cytometry of treated bacteria; format: cell-based, Staphylococcus aureus
From the text: The inventors also carried out a fluorescence reading by flow cytometry in order to validate the results previously obtained by spectrofluorimetry. Advantageously, flow cytometry considers only the fluorescence within the cell and not surrounding it, thus enabling direct assessment of the concentration of compound 053 within the cell without the need for rinsing.
(§4) The results are consistent with those obtained previously. […] The inventors also tested the impact that a fixing agent such as 1% w/v paraformaldehyde (PFA) or 70% cold ethanol might have on cells treated with compound 053.

BmrA efflux pump [5] = target: T1, BmrA efflux pump (Bacillus subtilis, UniProt O06967); assay: Bacterial staining (pellet colour) test on BmrA efflux pump mutants; format: cell-based; conditions: 0.75 μg/mL
T1 construct: endogenous in cells; host or cells: Bacillus subtilis 168 (DSM 402), BmrA+++ overproducer, BmrA deletion strain
Procedure: as §2
(§5) The following protocol was followed: • 1. Grow bacteria on a freshly prepared Muller Hilton-II (MH-II) agar plate. Incubate the Petri dish overnight at 37° C. (Note: Incubation temperature and growth time depend on the bacteria used in the experiment). • 2. The next morning, pick one or two colonies from the overnight plate and inoculate them in an Erlenmeyer flask containing 20 mL MH-II broth. • 3. Incubate the Erlenmeyer on an orbital shaker at 37° C. and 160 rpm for 3-4 hrs. Note: This step allows us to obtain cells in exponential phase, so we need to consider the doubling time of the bacteria used. • 4. After incubation, transfer the cells to a centrifuge tube and centrifuge at 4500 rpm for 10 minutes. Discard supernatant. Add fresh MH-II broth to the centrifuge tube and adjust the optical density of the cells to 0.5. • 5. Transfer an aliquot (5 mL) of cells with adjusted optical density to a new centrifuge tube (50 mL). Add 3.75 μL of compound 053 stock solution (1000 μg/mL) to this tube. Cap the tubes and shake thoroughly to mix the compound. Then keep the centrifuge tube on the table for 15 minutes at room temperature. Note: It is preferable to have a larger surface area to facilitate agitation. The final concentration of 053 used in the experiment is 0.75 μg/mL. […] After 15 minutes contact time, centrifuge the tubes for 10-15 minutes at 4500 rpm to obtain cell pellets and discard supernatant. Using 5 mL of phosphate- or potassium phosphate-buffered saline (PBS, pH7), wash the cell pellets thoroughly (PBS, pH7), repeating this operation twice. Note: Pipette several times with a 5 mL or 1 mL pipette during washing. Make sure there are no lumps during pipetting. The purpose of washing is to remove excess dye from the cell surface. • 7. The color variation in the cells is visible to the naked eye on the cell pellet after the two washes. • a. […]

BmrA efflux pump [6] = assay: as above; format: cell-based, Bacillus subtilis; conditions: BmrAΔ (BmrA deleted); 0.75 μg/mL
Procedure: as §2, §5

BmrA efflux pump [7] = target: T1, BmrA efflux pump; assay: Fluorescence measurement (spectrofluorimetry) on BmrA efflux pump mutants; format: cell-based
Procedure: as §3
(§6) Bacterial strains: The inventors used • the reference strain Bacillus subtilis 168 (DSM 402) producing a basal level of BmrA, • Bacillus subtilis BmrA+++ overproducing the BmrA pump and • Bacillus subtilis BmrA Δ with the BmrA gene deleted. • (see Steinfels E et al. Biochemistry 43:7491-7502 and Krügel Het al. FEMS Microbiol Lett. 2010 December; 313(2): 155-63).
(§7) The protocols used are identical to those used in example 2-1.

BmrA efflux pump [8] = assay: as above; format: cell-based, Bacillus subtilis; conditions: pump-free mutant (BmrAΔ)
Procedure: as §3, §6, §7

PatA-PatB transporter = assay: Bacterial staining (pellet colour) test on PatA-PatB transporter mutants; format: cell-based, Streptococcus pneumoniae; conditions: 1 μg/mL
Procedure: as §2
as §5, with “agitation.” for “agitation. The final concentration of 053 used in the experiment is 0.75 μg/mL.”

AcrAB efflux pump [9] = target: T2, AcrAB efflux pump (Escherichia coli, UniProt P31224); assay: Pellet colour test for AcrAB efflux pump activity in strains pretreated with CCCP; format: cell-based; conditions: 1 μg/mL; cells pretreated 1 hr with CCCP 5 μg/mL; EC, AG100, AG100A versus AG102
T2 construct: strain AG100 is the wild-type strain of E. coli (Wild) also showing normal efflux; endogenous in cells; host or cells: Escherichia coli ATCC11775, AG100 (wild type), AG102 (AcrAB overexpressing), AG100A (acrAB deleted)
Procedure: The inventors also tested compound 053 (1 μg/mL) on the same Escherichia coli strains with varying levels of AcrAB efflux pump expression. The protocol was slightly modified to introduce a pre-treatment step with Carbonyl Cyanide m-Chlorophenylhydrazone (CCCP). CCCP is a chemical inhibitor of oxidative phosphorylation. It interferes with the transmembrane electrochemical gradient and proton-motive force, and consequently reduces ATP production. The effect of CCCP is to reduce the efficiency of efflux pumps, making it easier to perceive differences in staining between different strains.
The experimental protocol is the same as that described in the examples, with the difference that cells are treated for 1 hr with CCCP (5 μg/mL) in phosphate buffer (PPB). After CCP treatment, the whole experiment is run in PPB instead of MH-II broth from step 4 onwards.

NorA efflux pump [10] = assay: Relative fluorescence intensity of treated strains fixed with PFA or ethanol; format: cell-based, Staphylococcus aureus; conditions: fixing agent 1% w/v PFA or 70% cold ethanol; CIP 76.25, SA, SA1199B, SA K1758
From the text: as §4

[11] = strain AG100 (wild-type), normal efflux
[12] = strain AG102 (AcrAB overexpression)
[13] = strain EC (ATCC11775), normal efflux
[14] = strain SA 1199B (NorA overproducer)

T1 sequence (O06967 whole entry): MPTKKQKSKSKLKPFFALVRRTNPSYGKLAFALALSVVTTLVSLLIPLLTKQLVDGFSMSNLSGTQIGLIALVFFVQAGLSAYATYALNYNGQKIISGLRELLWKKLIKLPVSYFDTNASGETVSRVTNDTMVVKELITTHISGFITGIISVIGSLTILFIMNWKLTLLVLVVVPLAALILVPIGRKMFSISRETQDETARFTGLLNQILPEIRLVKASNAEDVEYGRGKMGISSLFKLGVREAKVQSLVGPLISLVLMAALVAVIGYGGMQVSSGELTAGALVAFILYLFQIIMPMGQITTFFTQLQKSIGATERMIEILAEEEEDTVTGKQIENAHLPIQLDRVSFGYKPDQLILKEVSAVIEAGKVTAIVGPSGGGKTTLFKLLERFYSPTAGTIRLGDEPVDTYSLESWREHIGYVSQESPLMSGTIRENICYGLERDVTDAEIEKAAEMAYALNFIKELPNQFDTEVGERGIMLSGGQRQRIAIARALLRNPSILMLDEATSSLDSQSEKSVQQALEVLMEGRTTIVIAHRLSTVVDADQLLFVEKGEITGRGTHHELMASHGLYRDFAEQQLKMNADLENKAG
T2 sequence (P0AE06 25-397): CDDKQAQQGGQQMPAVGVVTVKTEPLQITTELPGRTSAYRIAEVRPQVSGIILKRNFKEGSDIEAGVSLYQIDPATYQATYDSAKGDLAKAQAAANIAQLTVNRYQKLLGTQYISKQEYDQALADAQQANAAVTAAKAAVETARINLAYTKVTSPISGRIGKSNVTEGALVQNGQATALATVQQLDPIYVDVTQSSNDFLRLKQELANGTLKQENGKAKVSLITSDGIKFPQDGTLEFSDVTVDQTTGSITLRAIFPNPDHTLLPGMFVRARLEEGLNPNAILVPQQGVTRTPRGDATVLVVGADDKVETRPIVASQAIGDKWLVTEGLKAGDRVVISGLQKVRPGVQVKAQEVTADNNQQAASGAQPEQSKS
T2 sequence (P02930 23-493, further chain): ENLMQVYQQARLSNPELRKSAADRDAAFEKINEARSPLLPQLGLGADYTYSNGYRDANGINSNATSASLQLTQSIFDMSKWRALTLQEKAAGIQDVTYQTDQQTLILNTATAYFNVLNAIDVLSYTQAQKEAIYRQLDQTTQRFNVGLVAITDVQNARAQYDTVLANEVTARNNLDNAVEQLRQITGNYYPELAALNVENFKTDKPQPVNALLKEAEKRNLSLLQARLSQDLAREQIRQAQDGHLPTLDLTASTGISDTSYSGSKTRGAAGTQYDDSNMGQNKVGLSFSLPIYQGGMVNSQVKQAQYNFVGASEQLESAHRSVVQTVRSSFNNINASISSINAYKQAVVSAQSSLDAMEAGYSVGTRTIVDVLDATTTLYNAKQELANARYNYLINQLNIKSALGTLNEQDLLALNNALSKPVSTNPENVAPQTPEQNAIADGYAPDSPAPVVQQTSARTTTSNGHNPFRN
T2 sequence (P31224 whole entry): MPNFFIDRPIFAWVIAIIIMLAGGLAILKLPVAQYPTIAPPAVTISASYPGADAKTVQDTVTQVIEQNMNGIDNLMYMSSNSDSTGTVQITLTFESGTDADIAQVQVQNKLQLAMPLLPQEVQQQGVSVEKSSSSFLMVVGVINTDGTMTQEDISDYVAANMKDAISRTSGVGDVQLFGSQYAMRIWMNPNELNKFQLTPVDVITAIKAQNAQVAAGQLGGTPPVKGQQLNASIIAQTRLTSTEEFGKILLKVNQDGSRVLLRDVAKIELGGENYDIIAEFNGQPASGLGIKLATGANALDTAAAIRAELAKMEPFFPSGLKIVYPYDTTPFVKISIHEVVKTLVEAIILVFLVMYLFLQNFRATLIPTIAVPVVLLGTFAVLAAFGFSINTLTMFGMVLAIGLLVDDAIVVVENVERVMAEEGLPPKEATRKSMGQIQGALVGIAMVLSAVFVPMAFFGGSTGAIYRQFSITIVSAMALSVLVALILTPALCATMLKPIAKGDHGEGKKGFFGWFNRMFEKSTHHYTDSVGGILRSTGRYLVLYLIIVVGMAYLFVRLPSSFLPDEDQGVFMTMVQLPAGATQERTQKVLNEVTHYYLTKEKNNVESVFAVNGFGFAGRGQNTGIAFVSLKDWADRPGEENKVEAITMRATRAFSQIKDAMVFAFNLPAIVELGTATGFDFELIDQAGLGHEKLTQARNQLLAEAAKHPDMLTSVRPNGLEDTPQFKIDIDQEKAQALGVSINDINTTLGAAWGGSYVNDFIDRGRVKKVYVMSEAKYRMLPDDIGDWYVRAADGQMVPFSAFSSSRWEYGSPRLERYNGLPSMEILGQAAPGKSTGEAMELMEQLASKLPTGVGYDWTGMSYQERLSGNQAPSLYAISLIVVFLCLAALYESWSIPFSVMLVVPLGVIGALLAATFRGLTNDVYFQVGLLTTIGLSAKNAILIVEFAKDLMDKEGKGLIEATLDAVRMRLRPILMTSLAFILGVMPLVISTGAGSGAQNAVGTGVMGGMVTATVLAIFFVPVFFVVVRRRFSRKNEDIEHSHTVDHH

CCCCCCCC[n+]1c2cc(NCCCC)ccc2nc2cc(NCCOC)c(N)cc21 [compound 392]
staining of bacteria (pellet colour) (AcrAB efflux pump [1]; [11]): very pale pink | staining of bacteria (pellet colour) (AcrAB efflux pump [1]; strain AG100A (acrAB deleted)): dark pink stain | staining of bacteria (pellet colour) (AcrAB efflux pump [1]; [12]): unstained | staining of bacteria (pellet colour) (AcrAB efflux pump [1]; [13]): very pale pink

CCCCNc1ccc2nc3cc(NCCOC)c(N)cc3[n+](CCC)c2c1 [compound 053]
colour of bacterial pellet (NorA efflux pump [2]; strain CIP 76.25 (reference, basal NorA)): Intermediate colors; also recorded: intermediate pale pink | colour of bacterial pellet (NorA efflux pump [2]; [14]): No coloration; also recorded: white/off-white | colour of bacterial pellet (NorA efflux pump [2]; strain SA K1758 (NorA deleted)): bright dark pink | fluorescence of treated bacteria (NorA efflux pump [3]; strain CIP 76.25 (low NorA level)): intermediate levels of fluorescence | fluorescence of treated bacteria (NorA efflux pump [3]; strain SA 1199 (low NorA level)): intermediate levels of fluorescence | fluorescence of treated bacteria (NorA efflux pump [3]; [14]): almost nil | fluorescence of treated bacteria (NorA efflux pump [3]; strain SA K1758 (NorA pump-free mutant)): high fluorescence | accumulation in cells (fluorescence intensity by flow cytometry) (NorA efflux pump [4]; NorA-overexpressing strain SA1199B): accumulated very little | accumulation in cells (fluorescence intensity by flow cytometry) (NorA efflux pump [4]; norA-deleted strain SA K1758): accumulated heavily | accumulation in cells (fluorescence intensity by flow cytometry) (NorA efflux pump [4]; reference strain SA): accumulated moderately | accumulation in cells (fluorescence intensity by flow cytometry) (NorA efflux pump [4]; wild-type strain CIP 76.25): accumulated moderately | colour of bacterial pellet (BmrA efflux pump [5]; BmrA+++ (overexpressing BmrA)): white; also recorded: No coloration | colour of bacterial pellet (BmrA efflux pump [5]; wild-type B. subtilis 168 (DSM 402)): Intermediate pale pink | colour of bacterial pellet (BmrA efflux pump [6]): dark pink | fluorescence of treated bacteria (BmrA efflux pump [7]; overproducing strain (BmrA+++)): almost nil | fluorescence of treated bacteria (BmrA efflux pump [7]; wild-type strain (DSM 402)): intermediate levels of fluorescence | fluorescence of treated bacteria (BmrA efflux pump [8]): very high | colour of bacterial pellet (PatA-PatB transporter; DEL strain (PatA-PatB deleted)): dark pink | colour of bacterial pellet (PatA-PatB transporter; OVP strain (overexpressing PatA-PatB)): white | colour of bacterial pellet (PatA-PatB transporter; WT strain (basal PatA-PatB)): dark pink | visual distinction of strains by pellet staining (AcrAB efflux pump [9]): visually possible to distinguish | efflux differential between strains after fixation (NorA efflux pump [10]): efflux differential between the different strains remains visible

CCCCNc1ccc2nc3cc(NCCC)c(N)cc3[n+](CCCC)c2c1 [compound 29]
staining of bacteria (pellet colour) (AcrAB efflux pump [1]; [11]): very pale pink | staining of bacteria (pellet colour) (AcrAB efflux pump [1]; strain AG100A (acrAB deleted)): dark pink stain | staining of bacteria (pellet colour) (AcrAB efflux pump [1]; [12]): unstained | staining of bacteria (pellet colour) (AcrAB efflux pump [1]; [13]): very pale pink
